Measurements reported in ChEMBL document CHEMBL1201862, “PubChem BioAssay data set” (2004).
Calls of active or inactive are those of the source.

Legend:
[1] = tested on: Streptococcus sp. 'group A'; assay: Streptococcus pyogenes SK(-)GAS viability under kanamycin – luminescence, BacTiterGlo, confirmation, counter-screen for streptokinase expression inhibitor project, dose response (AID 1900); assay type: functional, organism-based
Streptokinase A = molecular target: T1, Streptokinase A (Streptococcus pyogenes serotype M1, UniProt P10520); assay: viability-normalized secreted streptokinase activity reduction – plasminogen activation absorbance, OD405, dose response (AID 1914); assay type: functional, Streptococcus pyogenes M1 GAS;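 further: secreted streptokinase activity via plasminogen activation per viability signal from cell pellet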
T1 sequence (P10520 whole entry): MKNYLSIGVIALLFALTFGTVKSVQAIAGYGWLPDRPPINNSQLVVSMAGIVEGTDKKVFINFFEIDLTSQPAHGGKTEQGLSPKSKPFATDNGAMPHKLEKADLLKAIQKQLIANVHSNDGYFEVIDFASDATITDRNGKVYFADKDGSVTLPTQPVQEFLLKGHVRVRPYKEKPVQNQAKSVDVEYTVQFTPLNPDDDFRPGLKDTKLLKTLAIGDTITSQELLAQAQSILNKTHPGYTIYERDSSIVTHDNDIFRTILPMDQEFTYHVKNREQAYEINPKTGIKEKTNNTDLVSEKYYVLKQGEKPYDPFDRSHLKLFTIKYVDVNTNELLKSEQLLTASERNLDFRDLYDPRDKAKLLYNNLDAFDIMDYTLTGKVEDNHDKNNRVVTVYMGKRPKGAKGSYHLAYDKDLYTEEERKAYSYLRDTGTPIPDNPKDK

[2] = molecular target: T2, Sentrin-specific protease 8 (Homo sapiens, UniProt Q96LD8); assay type: functional;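 further: luminescence read-out of SENP8 inhibition, dose-response confirmation following an ultra-high-throughput screen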
T2 sequence (Q96LD8 whole entry): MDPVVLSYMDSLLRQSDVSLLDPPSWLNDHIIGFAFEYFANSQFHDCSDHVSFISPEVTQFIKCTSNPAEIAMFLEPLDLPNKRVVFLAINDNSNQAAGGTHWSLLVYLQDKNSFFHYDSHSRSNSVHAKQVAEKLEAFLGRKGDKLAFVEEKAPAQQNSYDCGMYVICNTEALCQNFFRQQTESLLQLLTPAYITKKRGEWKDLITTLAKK

[3] = molecular target: Photoreceptor-specific nuclear receptor (Homo sapiens, UniProt Q9Y5X4); assay type: functional;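 further: potency for compounds that break the NR2E3 corepressor complex and count as activators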
[4] = Trypanosoma cruzi growth suppression in host cells – NIH3T3 host cells, beta-gal luminescence, confirmation (AID 2044); assay type: functional, cell-based;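 further: intracellular parasites grown in NIH/3T3 mouse fibroblasts as host cells; luminescent beta-galactosidase reporter signal from transgenic T. cruzi replicating inside host cells; inhibitors lower the luminescence signal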
[5] = molecular target: Dual specificity protein phosphatase 3 (Homo sapiens, UniProt P51452); assay: VHR1 phosphatase inhibitors, biochemical (AID 1878)
ORF 73 = ORF 73 (Human herpesvirus 8, UniProt O40947); assay: KSHV LANA DNA-binding disruption – biochemical, fluorescence polarization, cherry-picked samples, dose response (AID 504725); parameters: species or system Human gammaherpesvirus 8;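 further: fluorescence polarization of a labeled DNA duplex reporting LANA DNA binding; potency is for inhibitors that block LANA binding to the DNA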
[6] = molecular target: 26S proteasome non-ATPase regulatory subunit 14 (Homo sapiens, UniProt O00487); assay: inhibition of proteasome subunit RPN11 – biochemical, fluorescence polarization, uHTS hits, confirmation (AID 602368); assay type: functional
[7] = molecular target: 72 kDa type IV collagenase (Homo sapiens, UniProt P08253); assay: Dose Response validation of uHTS RPN11 inhibitor hits using a MMP-2 Fluorescence assay.; assay type: functional
Prothrombin = Prothrombin (Bos taurus, UniProt P00735); assay: thrombin protease inhibitors – biochemical, fluorescence polarization, uHTS hits, dose response (AID 602369); assay type: functional
[8] = molecular target: NAD-dependent protein deacylase sirtuin-5, mitochondrial (Homo sapiens, UniProt Q9NXA8); assay: sirtuin-5 deacylation blockers, concentration series – biochemical, fluorescence imaging, cherry-pick, set 5, dose response (AID 720591);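 further: desuccinylation of succinyl peptide AMC substrate read as fluorescence after trypsin release; potency of inhibitors that lower fluorescence and may act on trypsin instead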
[9] = molecular target: T3, Tyrosine-protein phosphatase non-receptor type 7 (Homo sapiens, UniProt P35236); assay type: functional
T3 sequence (P35236 whole entry): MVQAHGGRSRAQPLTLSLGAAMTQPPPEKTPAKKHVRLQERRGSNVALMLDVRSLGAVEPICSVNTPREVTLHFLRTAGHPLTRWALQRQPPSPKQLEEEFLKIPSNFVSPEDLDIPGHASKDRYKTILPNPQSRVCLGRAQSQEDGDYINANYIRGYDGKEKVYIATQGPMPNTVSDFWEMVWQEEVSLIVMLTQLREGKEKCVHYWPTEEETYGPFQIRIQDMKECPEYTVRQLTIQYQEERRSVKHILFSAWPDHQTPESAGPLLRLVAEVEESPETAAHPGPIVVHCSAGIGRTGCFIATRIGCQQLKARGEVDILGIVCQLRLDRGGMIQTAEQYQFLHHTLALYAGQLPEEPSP

[10] = molecular target: T4, Tyrosine-protein phosphatase non-receptor type 22 (Homo sapiens, UniProt Q9Y2R2); assay type: functional;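 further: confirmatory dose-response retest of primary uHTS hits for inhibition of LYP phosphatase, measured by a fluorescence intensity read-out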
T4 sequence (Q9Y2R2 whole entry): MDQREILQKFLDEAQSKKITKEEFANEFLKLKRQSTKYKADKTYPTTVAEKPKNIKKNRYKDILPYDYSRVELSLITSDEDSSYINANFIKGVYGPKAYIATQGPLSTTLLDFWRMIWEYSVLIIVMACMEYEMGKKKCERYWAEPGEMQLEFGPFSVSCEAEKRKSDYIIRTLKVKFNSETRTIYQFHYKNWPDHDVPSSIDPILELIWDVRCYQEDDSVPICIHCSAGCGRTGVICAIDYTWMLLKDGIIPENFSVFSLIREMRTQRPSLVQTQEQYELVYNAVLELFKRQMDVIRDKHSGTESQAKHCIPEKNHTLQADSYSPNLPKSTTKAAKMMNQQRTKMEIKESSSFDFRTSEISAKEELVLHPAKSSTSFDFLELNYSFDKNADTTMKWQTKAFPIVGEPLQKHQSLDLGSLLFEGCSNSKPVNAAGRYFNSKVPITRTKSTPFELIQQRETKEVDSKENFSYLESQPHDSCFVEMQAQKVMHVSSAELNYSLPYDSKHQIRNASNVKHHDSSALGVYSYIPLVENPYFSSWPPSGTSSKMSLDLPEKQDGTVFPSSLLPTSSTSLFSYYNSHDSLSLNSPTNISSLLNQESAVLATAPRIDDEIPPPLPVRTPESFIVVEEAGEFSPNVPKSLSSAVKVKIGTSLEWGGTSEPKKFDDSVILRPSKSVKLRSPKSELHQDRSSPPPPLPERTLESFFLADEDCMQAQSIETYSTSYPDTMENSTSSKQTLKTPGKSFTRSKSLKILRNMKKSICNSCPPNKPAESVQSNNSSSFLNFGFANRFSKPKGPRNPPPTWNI

Sequence of ORF 73 (O40947 whole entry): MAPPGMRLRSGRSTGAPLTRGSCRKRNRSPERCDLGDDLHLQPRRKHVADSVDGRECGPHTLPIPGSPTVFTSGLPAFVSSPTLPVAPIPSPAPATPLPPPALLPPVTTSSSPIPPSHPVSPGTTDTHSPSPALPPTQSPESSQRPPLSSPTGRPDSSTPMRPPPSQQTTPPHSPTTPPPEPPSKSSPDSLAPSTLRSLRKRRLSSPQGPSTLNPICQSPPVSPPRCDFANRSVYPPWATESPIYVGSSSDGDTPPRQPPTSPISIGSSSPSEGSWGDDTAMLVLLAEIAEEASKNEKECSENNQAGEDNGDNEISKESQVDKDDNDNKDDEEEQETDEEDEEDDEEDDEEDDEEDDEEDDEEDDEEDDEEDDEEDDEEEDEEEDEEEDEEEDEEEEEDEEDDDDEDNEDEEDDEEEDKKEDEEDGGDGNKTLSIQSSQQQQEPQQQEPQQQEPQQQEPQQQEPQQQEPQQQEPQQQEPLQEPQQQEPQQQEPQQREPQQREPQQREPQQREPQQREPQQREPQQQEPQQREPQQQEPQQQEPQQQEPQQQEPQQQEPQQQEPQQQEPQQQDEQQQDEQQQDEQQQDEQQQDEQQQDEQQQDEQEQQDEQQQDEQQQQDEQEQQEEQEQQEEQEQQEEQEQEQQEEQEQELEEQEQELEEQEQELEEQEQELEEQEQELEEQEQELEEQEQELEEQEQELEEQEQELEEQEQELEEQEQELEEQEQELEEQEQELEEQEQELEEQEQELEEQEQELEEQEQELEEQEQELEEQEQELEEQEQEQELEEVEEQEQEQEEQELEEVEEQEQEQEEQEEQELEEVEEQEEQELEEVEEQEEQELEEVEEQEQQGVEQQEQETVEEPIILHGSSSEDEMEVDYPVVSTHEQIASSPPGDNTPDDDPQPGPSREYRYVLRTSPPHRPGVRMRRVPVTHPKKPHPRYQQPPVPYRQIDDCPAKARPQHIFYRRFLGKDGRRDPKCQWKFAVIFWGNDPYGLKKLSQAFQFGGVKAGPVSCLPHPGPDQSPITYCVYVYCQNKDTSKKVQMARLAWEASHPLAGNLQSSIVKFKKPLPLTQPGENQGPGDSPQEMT
Sequence of Dual specificity protein phosphatase 3 (P51452 whole entry): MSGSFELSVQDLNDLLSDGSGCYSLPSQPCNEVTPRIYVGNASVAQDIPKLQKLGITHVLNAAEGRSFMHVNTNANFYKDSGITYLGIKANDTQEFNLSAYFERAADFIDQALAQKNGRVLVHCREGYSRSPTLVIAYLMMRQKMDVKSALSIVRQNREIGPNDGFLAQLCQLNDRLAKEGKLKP
Sequence of 26S proteasome non-ATPase regulatory subunit 14 (O00487 whole entry): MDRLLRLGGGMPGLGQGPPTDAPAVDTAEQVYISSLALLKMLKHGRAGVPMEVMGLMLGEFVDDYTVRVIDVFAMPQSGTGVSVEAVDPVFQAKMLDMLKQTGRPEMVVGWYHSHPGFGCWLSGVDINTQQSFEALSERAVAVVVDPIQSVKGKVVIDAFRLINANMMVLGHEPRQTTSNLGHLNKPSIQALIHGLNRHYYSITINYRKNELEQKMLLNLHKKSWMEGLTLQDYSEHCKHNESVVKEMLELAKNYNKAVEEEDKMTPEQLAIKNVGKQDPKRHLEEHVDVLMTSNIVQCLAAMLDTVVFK
Sequence of Photoreceptor-specific nuclear receptor (Q9Y5X4 whole entry): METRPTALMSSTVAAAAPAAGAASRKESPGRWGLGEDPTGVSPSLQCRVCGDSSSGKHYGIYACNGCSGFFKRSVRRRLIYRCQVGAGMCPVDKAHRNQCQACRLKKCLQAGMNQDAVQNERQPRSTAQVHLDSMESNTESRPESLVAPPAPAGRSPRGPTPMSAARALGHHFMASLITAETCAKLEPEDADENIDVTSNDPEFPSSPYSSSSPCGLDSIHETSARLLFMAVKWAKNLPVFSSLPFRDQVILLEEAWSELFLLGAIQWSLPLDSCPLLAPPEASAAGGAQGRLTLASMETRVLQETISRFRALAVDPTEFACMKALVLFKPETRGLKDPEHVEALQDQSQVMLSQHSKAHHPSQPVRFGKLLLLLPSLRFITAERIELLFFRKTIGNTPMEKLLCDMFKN
Sequence of NAD-dependent protein deacylase sirtuin-5, mitochondrial (Q9NXA8 whole entry): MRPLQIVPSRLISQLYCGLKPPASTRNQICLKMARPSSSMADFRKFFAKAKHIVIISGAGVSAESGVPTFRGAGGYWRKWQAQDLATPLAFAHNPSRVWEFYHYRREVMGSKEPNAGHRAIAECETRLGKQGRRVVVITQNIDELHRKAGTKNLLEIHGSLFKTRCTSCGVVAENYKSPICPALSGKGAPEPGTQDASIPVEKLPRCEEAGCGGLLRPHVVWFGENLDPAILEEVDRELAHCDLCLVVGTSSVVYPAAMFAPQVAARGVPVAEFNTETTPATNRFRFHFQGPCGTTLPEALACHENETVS
Sequence of 72 kDa type IV collagenase (P08253 whole entry): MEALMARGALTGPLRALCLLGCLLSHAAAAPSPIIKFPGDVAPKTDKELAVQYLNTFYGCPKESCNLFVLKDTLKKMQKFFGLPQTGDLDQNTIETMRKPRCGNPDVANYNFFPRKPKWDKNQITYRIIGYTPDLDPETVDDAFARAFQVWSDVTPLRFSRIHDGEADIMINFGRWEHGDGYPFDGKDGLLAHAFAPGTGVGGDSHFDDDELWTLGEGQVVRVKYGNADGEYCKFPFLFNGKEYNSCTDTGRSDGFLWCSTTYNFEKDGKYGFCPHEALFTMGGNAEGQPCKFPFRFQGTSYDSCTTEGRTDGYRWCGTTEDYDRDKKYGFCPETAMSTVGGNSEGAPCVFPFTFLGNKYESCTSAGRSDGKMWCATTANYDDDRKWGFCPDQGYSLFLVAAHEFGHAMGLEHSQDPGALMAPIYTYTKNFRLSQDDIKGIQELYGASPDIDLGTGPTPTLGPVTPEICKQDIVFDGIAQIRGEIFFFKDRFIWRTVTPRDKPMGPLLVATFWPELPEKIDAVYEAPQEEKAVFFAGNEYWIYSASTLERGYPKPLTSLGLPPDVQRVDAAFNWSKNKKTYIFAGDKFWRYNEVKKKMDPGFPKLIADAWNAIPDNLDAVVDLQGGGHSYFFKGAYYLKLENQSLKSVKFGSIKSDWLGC

In the case of `O=C1c2ccccc2C(=O)c2[nH]c(O)nc21`, the EC50 [1] is reported as 4.23 µM (active) and the EC50 (Streptokinase A) is reported as 130 µM (active).

In the case of `CCOC(=O)C1=C(C)OC2(O)c3ccccc3C(=O)C12O` (stereo not drawn), the IC50 [2] is reported as 5.38 µM (active).

With `COC(=O)c1cc(C)nc2c1C(=O)C(=O)C=C2N1CCOCC1` the IC50 [3] was > 39.8 µM (not active) and the EC50 [4] was 2.34 µM (active).

For `NS(=O)(=O)c1cc(C(=O)NC2CCSc3ccccc32)ccc1Cl` (stereo not drawn), the IC50 [5] was < 1.23 µM (inactive), the AC50 (ORF 73) was 10.1 µM (active) and the IC50 [6] was 0.763 µM (active). The IC50 [7] was 2.68 µM (active), the IC50 (Prothrombin) was 24.5 µM (active) and the AC50 [8] was 6.65 µM (active).

For `N#Cc1c(N2CCCC2)nc(N)c2c(N)nc(N3CCCC3)cc12`, the IC50 [9] was 74.3 µM (active) and the IC50 [10] was > 79.4 µM (inactive).
